These results are taken from PMC8286840, “Identifying SARS-CoV-2 antiviral compounds by screening for small molecule inhibitors of Nsp3 papain-like protease” (Biochemical Journal, 2021).

Counter-ions that a name gives are not always drawn. Like-named read-outs stand apart in the source and are kept apart here.

In experiment [1] the target is T1, SARS-CoV-2 PLpro (nsp3 1564–1878) (Severe acute respiratory syndrome coronavirus 2, UniProt P0DTD1). Nature of the experiment: biochemical. The arrangement: FRET-quenched peptide (Pro3) cleavage by PLpro, 10 min pre-incubation, slope over 20 min, normalised to no-compound control. Conditions: read-out: % of control remaining.
For experiment [2], the target named is T1, SARS-CoV-2 PLpro (nsp3 1564–1878). As to the kind of experiment: biochemical. The arrangement: FRET-quenched peptide (Pro3) cleavage by PLpro, 10 min pre-incubation, slope over 20 min, normalised to no-compound control. Conditions: read-out: % of control remaining. The source holds these as a separate data set.

For the compound `O=C(Nc1ccc(C(O)(C(F)(F)F)C(F)(F)F)cc1)c1ccc(C(F)(F)F)cc1` [SR1078], in experiment [1] (Well no.=8503, high concentration screen), the remaining activity at 3.75 µM was 105%. Besides, the remaining activity at 1.25 µM in experiment [2] (Well no.=8503, low concentration screen) was determined as 107%.
On to `O=S(=O)(Nc1ccc(C(O)(C(F)(F)F)C(F)(F)F)cc1)c1cccs1` [SR3335], for which the remaining activity at 3.75 µM in experiment [1] (Well no.=8457, high concentration screen) is 107%. In addition, the remaining activity at 1.25 µM in experiment [2] (Well no.=8457, low concentration screen) is 110%.
As for `CN(C)CCOc1cc(-c2cn[nH]c2)ccc1NC(=O)C1COc2ccccc2O1` (centres unmarked) [SR3677], the remaining activity at 3.75 µM in experiment [1] (Well no.=2989, high concentration screen) was 98.3%. The remaining activity at 1.25 µM in experiment [2] (Well no.=2989, low concentration screen) is 97.2%.
For `CC1(C)CCC(C)(C)c2cc(C3(c4ccc(C(=O)O)cc4)OCCO3)ccc21` [SR11237], in experiment [1] (Well no.=5768, high concentration screen), the remaining activity at 3.75 µM was 90.6%. Further, the remaining activity at 1.25 µM in experiment [2] (Well no.=5768, low concentration screen) came to 96%.
On to `O=C(O)c1ccccc1Nc1cccc(OCc2ccc3ccccc3n2)c1` [SR 2640], for which the remaining activity at 3.75 µM in experiment [1] (Well no.=1316, high concentration screen) was 101%. Also, the remaining activity at 1.25 µM in experiment [2] (Well no.=1316, low concentration screen) came out at 101%.
In the case of `CCOP(=O)(OCC)C(=Cc1cc(C(C)(C)C)c(O)c(C(C)(C)C)c1)P(=O)(OCC)OCC` [SR 12813], in experiment [1], the remaining activity at 3.75 µM was determined as 103%. In addition, the remaining activity at 1.25 µM in experiment [2] was 96.5%.
For `CC(C)c1cc(C(C)C)c(-c2csc(N(CCN(C)C)Cc3cccnc3)n2)c(C(C)C)c1` [SR 27417], the remaining activity at 3.75 µM in experiment [1] (Well no.=5599, high concentration screen) is 100%. In addition, the remaining activity at 1.25 µM in experiment [2] (Well no.=5599, low concentration screen) was 100%.
Turning to `NC1CCN(c2cccc(Cl)n2)CC1` [SR 57227A], the remaining activity at 3.75 µM in experiment [1] (Well no.=1262, high concentration screen) is 102%. Moreover, the remaining activity at 1.25 µM in experiment [2] (Well no.=1262, low concentration screen) turned out to be 103%.
In the case of `COc1ccc(-c2ccc(=N)n(CCCC(=O)O)n2)cc1` [SR-95531], the remaining activity at 3.75 µM in experiment [1] (Well no.=1325, high concentration screen) was found to be 98.9%. In addition, the remaining activity at 1.25 µM in experiment [2] (Well no.=1325, low concentration screen) was 103%.
On to `O=C(Nc1ccccc1-c1cn2c(CN3CCNCC3)csc2n1)c1cnc2ccccc2n1` [SRT1720], for which, in experiment [1] (Well no.=4673, high concentration screen), the remaining activity at 3.75 µM stood at 98.8%. Further, the remaining activity at 1.25 µM in experiment [2] (Well no.=4673, low concentration screen) is 100%.
As to `C[C@@H](Nc1cc(NS(=O)(=O)N2CCC2)nc(SCc2cccc(F)c2F)n1)[C@@H](O)CO` [SRT3109], the remaining activity at 3.75 µM in experiment [1] (Well no.=8607, high concentration screen) was 104%. Besides, the remaining activity at 1.25 µM in experiment [2] (Well no.=8607, low concentration screen) was 108%.
Turning to `C[C@H](Nc1cc(NS(=O)(=O)N2CCC2)nc(SCc2cccc(F)c2F)n1)[C@@H](O)CO` [SRT3190], the remaining activity at 3.75 µM in experiment [1] (Well no.=7438, high concentration screen) stood at 104%; in experiment [1] (Well no.=8507, high concentration screen), 97.8%. Further, the remaining activity at 1.25 µM in experiment [2] (Well no.=7438, low concentration screen) amounted to 104%; in experiment [2] (Well no.=8507, low concentration screen) it was 98.1%.
Consider `O=c1cc(C(Cl)(Cl)Cl)oc2ccc(Cl)cc12` [ST034307], for which the remaining activity at 3.75 µM in experiment [1] (Well no.=7185, high concentration screen) came out at 95.4%. Moreover, the remaining activity at 1.25 µM in experiment [2] (Well no.=7185, low concentration screen) worked out at 103%.
Turning to `CCCN(CCN1CCN(c2ccccc2OC)CC1)C1CCc2ncsc2C1` (centres unmarked) [ST-836 (hydrochloride)], in experiment [1] (Well no.=8445, high concentration screen), the remaining activity at 3.75 µM was found to be 92.2%. Also, the remaining activity at 1.25 µM in experiment [2] (Well no.=8445, low concentration screen) came out at 89.3%.
For the compound `CC(C)(C)c1ccc(S(=O)(=O)NCc2ccc(C(=O)Nc3cccnc3)cc2)cc1` [STF-31], the remaining activity at 3.75 µM in experiment [1] (Well no.=6059, high concentration screen) worked out at 94.5%. Besides, the remaining activity at 1.25 µM in experiment [2] (Well no.=6059, low concentration screen) came to 94.9%.
As for `Cc1cccc(Nc2nc(-c3ccncc3)cs2)c1` [STF-62247], in experiment [1] (Well no.=4615, high concentration screen), the remaining activity at 3.75 µM was 106%. Moreover, the remaining activity at 1.25 µM in experiment [2] (Well no.=4615, low concentration screen) amounted to 102%.
For `Cc1ccc(S(=O)(=O)Cc2nc(-c3ccc(C(=O)NCc4cccnc4)cc3)oc2C)cc1` [STF-118804], the remaining activity at 3.75 µM in experiment [1] (Well no.=5552, high concentration screen) was 91.7%. In experiment [2] (Well no.=5552, low concentration screen), the remaining activity at 1.25 µM turned out to be 90.7%.
Take `O=C(NCc1ccco1)c1ccc2c(c1)N(Cc1c(F)cccc1Cl)C(=O)CS2` [STING agonist-1]: the remaining activity at 3.75 µM in experiment [1] (Well no.=8643, high concentration screen) was determined as 103%. In experiment [2] (Well no.=8643, low concentration screen), the remaining activity at 1.25 µM came out at 102%.
As for `O=C(O)c1ccc2c3c1cccc3c(=O)n1c3ccccc3nc21` [STO-609], the remaining activity at 3.75 µM in experiment [1] (Well no.=2658, high concentration screen) was found to be 89.5%. Moreover, in experiment [2] (Well no.=2658, low concentration screen), the remaining activity at 1.25 µM worked out at 90%.
`CN(C)S(=O)(=O)c1ccc2c(c1)/C(=C/c1cc3c([nH]1)CCCC3)C(=O)N2` [SU6656]: the remaining activity at 3.75 µM in experiment [1] (Well no.=2500, high concentration screen) stood at 99.1%; in experiment [1] (Well no.=8074, high concentration screen) it was 98.5%. The remaining activity at 1.25 µM worked out at 94.8% in experiment [2] (Well no.=2500, low concentration screen) and 101% in experiment [2] (Well no.=8074, low concentration screen).
In the case of `COc1ccc2c(c1)/C(=C/c1cnc[nH]1)C(=O)N2` [SU9516], the remaining activity at 3.75 µM in experiment [1] (Well no.=2660, high concentration screen) worked out at 94.4%. The remaining activity at 1.25 µM in experiment [2] (Well no.=2660, low concentration screen) worked out at 96.5%.
Consider `Cc1[nH]c(/C=C2\C(=O)Nc3ccc(S(=O)(=O)N(C)c4cccc(Cl)c4)cc32)c(C)c1C(=O)N1CCN(C)CC1` [SU11274], for which the remaining activity at 3.75 µM in experiment [1] (Well no.=8164, high concentration screen) was 94.4%. In addition, the remaining activity at 1.25 µM in experiment [2] (Well no.=8164, low concentration screen) turned out to be 95.8%.
For `CCN(CC)CCNC(=O)c1c(C)[nH]c(/C=C2\C(=O)Nc3ccc(Cl)cc32)c1C` [SU11652], the remaining activity at 3.75 µM in experiment [1] (Well no.=2565, high concentration screen) was 93.7%. In addition, the remaining activity at 1.25 µM in experiment [2] (Well no.=2565, low concentration screen) came to 93.6%.
For the compound `CN(C)c1ccc(/C=C2\C(=O)Nc3ccccc32)cc1` [SU 4312 - 3-[[4-(dimethylamino)phenyl]methylene]-1,3-dihydro-2H-indol-2-one], the remaining activity at 3.75 µM in experiment [1] (Well no.=2430, high concentration screen) stood at 109%. For the same compound, in experiment [2] (Well no.=2430, low concentration screen), the remaining activity at 1.25 µM was found to be 106%.
Consider `CN(C)c1ccc(/C=C2\C(=O)Nc3ccccc32)cc1` [SU 4312], for which the remaining activity at 3.75 µM in experiment [1] (Well no.=1179, high concentration screen) stood at 101%. In addition, the remaining activity at 1.25 µM in experiment [2] (Well no.=1179, low concentration screen) amounted to 97.9%.
On to `Cc1c[nH]c(/C=C2\C(=O)Nc3ccccc32)c1CCC(=O)O` [SU-5402], for which the remaining activity at 3.75 µM in experiment [1] (Well no.=3037, high concentration screen) was 95.9%. In addition, in experiment [2] (Well no.=3037, low concentration screen), the remaining activity at 1.25 µM is 96.3%.
As for `CCCC[S+]([O-])c1sc2nc(-c3cccs3)cc(-c3ccccc3)c2c1N` (centres unmarked) [SW033291], in experiment [1] (Well no.=8674, high concentration screen), the remaining activity at 3.75 µM is 97.5%. In addition, the remaining activity at 1.25 µM in experiment [2] (Well no.=8674, low concentration screen) amounted to 101%.
With `CCc1cc2c(=O)c(-c3nc4ccccc4s3)coc2c(CN2CCCCC2)c1O` [SZL P1-41], the remaining activity at 3.75 µM in experiment [1] (Well no.=6694, high concentration screen) stood at 102%. Further, in experiment [2] (Well no.=6694, low concentration screen), the remaining activity at 1.25 µM turned out to be 103%.
For `C[C@H](NCc1ccc(OCc2cccc(F)c2)cc1)C(N)=O` [Safinamide mesylate salt], the remaining activity at 3.75 µM in experiment [1] (Well no.=5442, high concentration screen) was 94.5%. For the same compound, the remaining activity at 1.25 µM in experiment [2] (Well no.=5442, low concentration screen) worked out at 89.5%.
With `CC(C)(C)NCC(O)c1ccc(O)c(CO)c1` (centres unmarked) [Salbutamol (hemisulfate)], the remaining activity at 3.75 µM in experiment [1] (Well no.=7577, high concentration screen) is 96.7%. Moreover, in experiment [2] (Well no.=7577, low concentration screen), the remaining activity at 1.25 µM was 95.6%.
For the compound `CC(C)(C)NCC(O)c1ccc(O)c(CO)c1` (centres unmarked) [Salbutamol], in experiment [1] (Well no.=1366, high concentration screen), the remaining activity at 3.75 µM stood at 101%. Also, the remaining activity at 1.25 µM in experiment [2] (Well no.=1366, low concentration screen) came out at 101%.
In the case of `CC[C@@H](C(=O)[C@@H](C)[C@@H](O)[C@H](C)[C@@H]1O[C@@H]([C@@H](CC)C(=O)O)CC[C@@H]1C)[C@H]1O[C@]2(C=C[C@@H](O)[C@]3(CC[C@@](C)([C@H]4CC[C@](O)(CC)[C@H](C)O4)O3)O2)[C@H](C)C[C@@H]1C` [Salinomycin], the remaining activity at 3.75 µM in experiment [1] (Well no.=3499, high concentration screen) amounted to 102%. Moreover, the remaining activity at 1.25 µM in experiment [2] (Well no.=3499, low concentration screen) turned out to be 104%.
